Data published in US20260193227A1, “THERAPEUTIC COMPOUNDS AND METHODS” (UNIVERSITY OF IOWA RESEARCH FOUNDATION, priority 2022, published 2026).
“Also recorded” adds a separate entry of the source.

Experiments:
[1] = target: T1, RPA-ssDNA interaction (Homo sapiens, UniProt P27694); assay: FRET-based inhibition of the RPA-ssDNA interaction; type: binding; details: FRET titration
T1 construct: made in house
Procedure: Proteins: The 6×His-tagged human RAD52 proteins (wild type and mutants) and untagged human RPA were expressed and purified as previously described in (Hengel S R, eLife. 2016; 5; Grimme J M, et al., Nucleic Acids Res. 2010; 38(9):2917-30; and Henricksen L A, et al., The Journal of biological chemistry. 1994; 269(15):11121-32). RPA and RAD52 protein concentrations were determined by measuring absorbance at 280 nm using extinction coefficients of 88,830 M^−1 cm^−1 and 40,470 M^−1 cm^−1, respectively.
FRET-based DNA binding and inhibition assays: FRET-based that monitor the RAD52-ssDNA, RPA-ssDNA and RAD52-RPA-ssDNA binding were carried out as previously described (Hengel S R, eLife. 2016; 5; Grimme J M, et al., Nucleic Acids Res. 2010; 38(9):2917-30; and Grimme J M, Spies M. FRET-based assays to monitor DNA binding and annealing by Rad52 recombination mediator protein. Methods in molecular biology (Clifton, NJ). 2011; 745:463-83) using Cary Eclipse Spectrofluorimeter (Agilent) at 25° C., in 5 mm quartz cuvettes, and in buffer containing 30 mM Tris-Acetate (pH 7.5) and 1 mM DTT. Cy3 dye was excited at 530 nm and its emission was monitored at 565 nm. Emission of Cy5 acceptor fluorophore excited through the energy transfer from Cy3 donor is monitored at 660 nm simultaneously with emission of Cy3 dye. Both the excitation and the emission slits were set to 10 nm. All experiments were carried out using 1 nM (molecules) Cy3-dT30-Cy5 ssDNA. The optimal concentrations of the RAD52 (6 nM) and RPA (1 nM) proteins were selected by titrating the respective protein into 1 nM Cy3-dT30-Cy5 solution, and chosen based on the largest separation of the FRET values corresponding to the protein bound and free DNA.
The inhibition of the RAD52-ssDNA, RPA-ssDNA and RAD52-RPA-ssDNA complexes was evaluated by titrating each compound to the respective complex, measuring Cy3 and Cy5 fluorescence, and calculating FRET as previously described (Hengel, S. R., et al., eLife, 5).
Spectral properties of many compounds overlapped with the Cy3 and Cy5 fluorescence. To correct the calculated FRET values for the compound signal, the fluorogenic compounds were titrated into buffer and into solution of 1 nM Cy3-dT30-Cy5. For all tested compounds, the change in the signal in the Cy3 and Cy5 channels with and without Cy3/Cy5-labeled DNA present was the same. […] To account for the dye fluorescence, for each compound concentration, the apparent change in FRET of the ssDNA in the presence the compound was subtracted from the respective FRET signal of the RAD52-ssDNA, RPA-ssDNA or RAD52-ssDNA-RPA complex at the same inhibitor concentration. The IC50 values were calculated by fitting the corrected FRET data to the four-parameter dose response model using GraphPad Prism. All data are shown as average for at least three independent experiments ±standard deviation. The IC50 values are presented with their respective fitting error.

[2] = tested on: EUFA423F HA cells; assay: CellTiter-Glo cell viability, BRCA2-complemented cells; type: cell-based, human; details: yes/no
From the text: (§1) Cell lines: EUFA423F cells that are derived from a Fanconi Anemia patient with complementation group D1 and have biallelic mutations (7691 insAT and 9900 insA) in BRCA2 that result in two different truncated forms of BRCA2 (Howlett N G, et al., Science (New York, NY). 2002; 297(5581):606-9) and its counterpart complemented with expression vector for full-length BRCA2 (EUFA HA) were a generous gift from Dr. Simon Powell, Molecular Biology Program, Radiation Oncology, Sloan-Kettering Cancer Center, New York, NY).
Cell proliferation assay: Selective toxicity of the compounds towards human BRCA2 deficient cells was tested in EUFA423F and its complement EUFA423F HA using CellTiter-Glo® Luminescent Cell Viability Assay (Promega, Madison, WI). The cell lines were maintained in DMEM (Gibco/ThermoFisher Scientific, Waltham, MA) supplemented with 10% FBS and 10 mM HEPES (Gibco/ThermoFisher Scientific, Waltham, MA). EUFA423F HA cells were routinely supplemented with G418 in order to maintain the BRCA2 expression plasmid. Both cell lines were seeded in sterile tissue culture treated, white opaque 384-well plates (Perkin Elmer Inc., Waltham, MA) 3000 cells/well for EUFA423F HA and 2500 cells/well for EUFA423F) and allowed to adhere for 24 hours. Compounds dissolved in DMSO were added in the concentration range of 0-100 μM. Controls were treated with equivalent DMSO volumes. The cells were treated with compounds for 72 hours (to ensure that all cells experienced at least two S-phases). Post treatment, the cells were washed, treated with the CellTiter-Glo® reagent was added and the plate was analyzed as using a Gen5 (ver2.1) luminosity plate reader. The luminescence that reports on ATP generation by the surviving cells was normalized for the DMSO treated control as 100%. The normalized luminescence (average±standard deviation for at least three independent measurements obtained with different cell passages) was plotted in GraphPad Prism as a function of compound concentration. Clonogenic Survival: EUFA423F and EUFA423F HA cells were seeded in a 96 well plate. Compounds dissolved in DMSO were added to final concentrations of 0, 50, and 100 μM for the compound of Example 8 and the compound of Example 1, and 0, 5, and 10 μM for the compounds of Examples 2-7. The cells were treated with compounds for 72 hours. Post treatment, cell cultures were harvested by collecting all non-adherent cells in the well, trypsinization of all adherent cells, combining, pelleting and then resuspending in fresh media. Cultures treated with DMSO only were subsequently counted using a hemocytometer and plated at a density of 2000, 200 and 20 cells per well in 6-well culture plates, equal volumes of cultures were plated each inhibitor concentration. Each treatment and cell density conditions for both cell lines were plated in triplicate. After expanding the colonies for a period of 8 days, cultures were fixed with a solution of 70% ethanol and crystal violet for clonogenic survival analysis. Pictures of individual wells were taken using GelCount (Version 1.3.0.4) by Oxford Optronix (Abingdon UK). A colony had to contain at least 50 cells to be counted. The number of surviving colonies following treatment are presented as a percentage of number of colonies in the experiment where the cells were treated with DMSO only.

[3] = tested on: EUFA423F and EUFA423F HA cells; assay: Clonogenic survival assay; type: cell-based, human; details: cells pre-treated 72 hours, colonies after 8 days
From the text: as §1
Cell proliferation assay: Selective toxicity of the compounds towards human BRCA2 deficient cells was tested in EUFA423F and its complement EUFA423F HA using CellTiter-Glo® Luminescent Cell Viability Assay (Promega, Madison, WI). […] Post treatment, the cells were washed, treated with the CellTiter-Glo® reagent was added and the plate was analyzed as using a Gen5 (ver2.1) luminosity plate reader. The luminescence that reports on ATP generation by the surviving cells was normalized for the DMSO treated control as 100%. The normalized luminescence (average±standard deviation for at least three independent measurements obtained with different cell passages) was plotted in GraphPad Prism as a function of compound concentration. […] A colony had to contain at least 50 cells to be counted. […]

T1 sequence (P27694 whole entry): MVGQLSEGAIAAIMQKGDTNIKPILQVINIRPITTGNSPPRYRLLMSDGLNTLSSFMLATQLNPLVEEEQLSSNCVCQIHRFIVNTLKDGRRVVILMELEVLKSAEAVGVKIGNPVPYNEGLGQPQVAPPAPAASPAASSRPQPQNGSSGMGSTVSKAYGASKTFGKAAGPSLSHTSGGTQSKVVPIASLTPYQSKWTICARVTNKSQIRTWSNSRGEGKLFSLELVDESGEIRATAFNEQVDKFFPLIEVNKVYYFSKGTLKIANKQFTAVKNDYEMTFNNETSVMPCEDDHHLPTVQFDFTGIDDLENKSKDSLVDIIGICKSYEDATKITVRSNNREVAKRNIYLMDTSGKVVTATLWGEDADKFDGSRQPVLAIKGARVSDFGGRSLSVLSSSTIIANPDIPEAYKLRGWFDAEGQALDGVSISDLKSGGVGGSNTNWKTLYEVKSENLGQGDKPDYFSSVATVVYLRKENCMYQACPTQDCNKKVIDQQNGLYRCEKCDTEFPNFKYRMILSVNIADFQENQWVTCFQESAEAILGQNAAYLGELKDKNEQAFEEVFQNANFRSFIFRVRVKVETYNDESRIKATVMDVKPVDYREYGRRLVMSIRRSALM
T1 sequence (P15927 whole entry partner): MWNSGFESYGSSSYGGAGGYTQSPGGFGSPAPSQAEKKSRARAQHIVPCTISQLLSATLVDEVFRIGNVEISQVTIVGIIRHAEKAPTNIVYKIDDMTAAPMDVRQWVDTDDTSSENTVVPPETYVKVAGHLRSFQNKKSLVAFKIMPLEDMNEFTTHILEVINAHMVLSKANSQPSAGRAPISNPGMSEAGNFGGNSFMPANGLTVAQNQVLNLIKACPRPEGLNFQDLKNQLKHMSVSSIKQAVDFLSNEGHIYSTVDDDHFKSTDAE
T1 sequence (P35244 whole entry partner): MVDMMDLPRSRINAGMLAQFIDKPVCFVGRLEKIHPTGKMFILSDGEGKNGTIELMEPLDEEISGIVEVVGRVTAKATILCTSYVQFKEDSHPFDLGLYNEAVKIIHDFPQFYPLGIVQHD

Structure (SMILES) | effect on the RPA-ssDNA complex [1] | toxicity towards EUFA423 HA (BRCA2-complemented cells) [2] | clonogenic survival: confirmation of effect on cell viability [3] | effect on the RPA-ssDNA complex ([1]; listed as Z56)
O=C(Cn1cccc([N+](=O)[O-])c1=O)c1c[nH]c2ccccc12 [Example 1] | yields FRET values corresponding to the free ssDNA | yes | confirmed | –
COc1ccccc1NS(=O)(=O)c1cc(C(=O)O)ccc1C [Example 8] | – | no | confirmed | does not change the FRET values of the RPA-ssDNA complex; also recorded: no effect on the RPA-ssDNA complex
